Series [1] has as its system Pseudomonas syringae pv. tabaci cells. The experiment in a line: Membrane permeabilization assay (propidium iodide uptake). It is filed as cell-based. The following applies: within 30 min of treatment, 10 µM PI, 10 mM phosphate buffer pH 7.4, normalised to Polymyxin B, n = 3. The procedure: Pseudomonas syringae pv. tabaci cells were prepared and incubated with Propidium Iodide. The increase in fluorescence intensity was checked upon the addition of peptides. For details, please see section 1.1 of Supporting Information.
(§1) 1. Experimental Procedures
(§2) 1.1. Membrane permeabilization assay
(§3) Pseudomonas syringae pv. tabaci cells were grown till mid-logarithmic phase. The cells were […]
(§4) obtain a suspension containing 10^5 CFU/ml. 10µM of Propidium Iodide (Sigma Aldrich Co., St.
(§5) Louis, USA) was added to the cell suspension and incubated at room temperature, under shaking […]
fluorescence intensity was measured at 25 °C for 30 min at an excitation and emission wavelength of 535 nm and 617 nm respectively. After obtaining the fluorescence intensity of the stabilized cells, peptides were added at increasing concentrations, and the increase in fluorescence intensity was recorded. Normalization was done using measurement of cells treated with Polymyxin B that served as control. […]
(§6) HEK293 cell viability was monitored by MTT assay. […] Cell viability was then assessed by incubating the control and peptide treated cells using 100 µl of MTT (2mg/ml) for 3 h. The formazan crystals formed were dissolved in dimethyl sulfoxide (DMSO) and absorbance at 570 nm was recorded using SpectraMax M3 (Softmax Pro 6.3) multiplate reader. […] Cell viability was calculated using the equation: […]

The nature of series [2]: Plant extract stability assay (RP-HPLC). In kind it is in vitro ADME, Nicotiana tabacum. As to conditions: tobacco leaf extract (20% v/v) containing plant proteases; 1 mg peptide in 20% v/v tobacco leaf extract in 10 mM phosphate buffer pH 7.4, 37°C, stopped with 1% TFA, RP-HPLC C18 peak integration, mean ± SEM n = 3. The procedure:
The stability of VR18 and KG18 in the presence of plant proteases present in plant leaf extract was monitored using a modified version of a previously reported protocol (Li et al. [2002]). Briefly, 1 g of 1‐month‐old tobacco leaf ( Nicotiana tabacum ) was crushed in liquid nitrogen, followed by extraction in 10 mM phosphate buffer (pH 7.4). The suspension was pelleted at 13500× g for 5 min, and the supernatant was collected. 1 mg of the respective peptide was added to a stock of 20% v/v plant extract in 10 mM phosphate buffer (pH 7.4) and incubated at 37°C. 100 μL of aliquots were withdrawn at appropriate time intervals, and the reaction was stopped using 1% trifluoroacetic acid (TFA). Plant extract (20% v/v) was used as a negative control. The aliquots were subjected to a LC‐20AT reverse phase HPLC system (SHIMADZU, Japan) equipped with a Phenomenix C18 column (250 × 10 mm, pore size 100 Å, particle size 5 μm) at room temperature, using acetonitrile and water with 0.1% TFA as the solvents. A flow rate of 1 mL/min was maintained. The percentage of peptide remaining in the plant extract at different time intervals was analysed by peak integration using […] software, and the area obtained was normalised with respect to the free peptide without the plant extract.

Series [3] relates to Xanthomonas campestris pv. vesicatoria, X. campestris pv. campestris, X. oryzae pv. oryzae, Pseudomonas syringae pv. tabaci. As to conditions: 72 h.
A further series concerns HEK293 cells. Kind of series: MTT cell viability assay. In kind it is cell-based, human. As to conditions: 24 h, concentrations up to 4× MIC99%, triplicate. The method, then: For details, please see section 1.2 of Supporting Information.
as §1, §2, §3, §4, §5
fluorescence intensity was measured at 25 °C for 30 min at an excitation and emission wavelength of 535 nm and 617 nm respectively. After obtaining the fluorescence intensity of the stabilized cells, peptides were added at increasing concentrations, and the increase in fluorescence intensity was recorded. […]
as §6
1.3. […] A readseq program, (http://iubio.bio.indiana.edu/soft/molbio/readseq/) is used by the server that reads the protein sequences in standard formats like EMBL, FASTA, GCG or plain text format (Saha & Raghava, 2006). […]

This note sets out measurements from publication PMC12906832, “Transgenic Tobacco Plants Expressing Synthetic Peptides: A Functional and Structural Analysis for Pathogen Resistance” (Plant Biotechnology Journal, 2025).

One may read the half-life as the time in which the quantity being followed falls by half. In general, IC50 refers to the concentration at which inhibition is half-maximal.

No end group written: not given here.

As to Polymyxin B, the “propidium iodide (PI) uptake” value in series [1] is reported as “maximum PI uptake”.
In turn, KNKSRVARGWGRKCPLFG [KG18] gave a half-life in series [2] greater than 1 h. In series [3], the IC50 was 2.75 to 5.5 µM and the “minimal inhibitory concentration (MIC99%)” value was in the range of 3 to 10 µM. Further, the “cytotoxic effect on HEK 293 cells (MTT)” value in the series with HEK293 cells is “no toxicity”.
Taken in the same sequence, the figures for VARGWGRKCPLFGKNKSR [VR18] were greater than 1 h, 1.5 to 4.25 µM, 3 to 10 µM and “no toxicity”.
